Values quoted from earlier work in US20080089854A1, “Skin care compositions” (priority 2006, published 2008).

Tests used:
[1] = animal studies
[2] = topical application

For `O=C(O)CCCCCCCC(=O)O` [azelaic acid], the “adverse effects on fertility or reproduction” value [1] is given as “no adverse effects” and the “share of topically applied azelaic acid that is absorbed” value [2] is given as “about 3.6%”.
